In ChEMBL document CHEMBL4706653, “Ultra-short lipopeptides against gram-positive bacteria while alleviating antimicrobial resistance” (Eur J Med Chem, 2021):
≈ marks a conversion by molar mass, not a printed value. Calls of active or inactive are those of the source. No cut-off for these calls is given here. Positions of bridges follow the written chain, without caps; N, C: chain ends. Non-standard residues stand in square brackets, D forms with d. Residues, ends and D or L forms follow the SMILES beside them. *: point of attachment. X1 = CC[C@H](C)CCCCC(=O)*; Dab = NCC[C@H](N)C(=O)O

Tests used:
[1] = tested on: Staphylococcus aureus; experiment: Antimicrobial activity against Staphylococcus aureus ATCC 25923 at 0.5 times MIC after 15 passages by broth microdilution method; assay type: functional, organism-based
[2] = Toxicity in BALB/c mouse assessed as eosinophilic mass in the renal tubular lumen at 80 mg/kg, ip administered as single dose measured after 5 days; assay type: organism-based; settings: in vivo, 120 h, time 5 day
[3] = Toxicity in BALB/c mouse assessed as vacuoles in liver cytoplasm at 20 mg/kg, ip administered as single dose measured after 5 days; assay type: organism-based; settings: in vivo, 120 h, time 5 day
[4] = Toxicity in BALB/c mouse assessed as death at 20 to 80 mg/kg, ip administered as single dose measured within 30 mins; assay type: organism-based; settings: in vivo, 0.5 h, dose 20-80 mg/kg
[5] = Toxicity in BALB/c mouse assessed as inflammatory cell infiltration in liver at 20 mg/kg, ip administered as single dose measured after 5 days; assay type: organism-based; settings: in vivo, 120 h, time 5 day
[6] = Toxicity in BALB/c mouse assessed as congestion in kidney at 40 mg/kg, ip administered as single dose measured after 5 days; assay type: organism-based; settings: in vivo, 120 h, time 5 day
[7] = Toxicity in BALB/c mouse assessed as immobility at 20 to 80 mg/kg, ip administered as single dose measured within 30 mins; assay type: organism-based; settings: in vivo, 0.5 h, dose 20-80 mg/kg
[8] = tested on: Cell membrane; experiment: Induction of cytoplasmic membrane disruption in Staphylococcus aureus ATCC 25923 measured for 15 mins by DiSC3-5 dye based fluorescence assay
[9] = Binding affinity to LTA (unknown origin) assessed as bacterial killing at 2 times MIC preincubated for 1 hr followed by Staphylococcus aureus ATCC 25923 addition and measured after 2 hrs by colony counting method; settings: time 3.0 hrs
[10] = tested on: Staphylococcus epidermidis; experiment: Antimicrobial activity against Staphylococcus epidermidis ATCC 12228 at 0.5 times MIC after 15 passages by broth microdilution method; assay type: functional, organism-based
[11] = Toxicity in BALB/c mouse assessed as liver cell lysis at 80 mg/kg, ip administered as single dose measured after 5 days; assay type: organism-based; settings: in vivo, 120 h, time 5 day
[12] = tested on: Cell membrane; experiment: Induction of membrane disruption in Staphylococcus aureus ATCC 25923 assessed as PI-positive cells at 2 times MIC measured after 2 hrs by propidium iodide staining based flow cytometry relative to control
[13] = tested on: Cell membrane; experiment: Induction of membrane disruption in Staphylococcus aureus ATCC 25923 measured after 2 hrs by propidium iodide staining based confocal laser scanning microscopic analysis; assay type: subcellular
[14] = Toxicity in BALB/c mouse assessed as congestion in liver at 20 mg/kg, ip administered as single dose measured after 5 days; assay type: organism-based; settings: in vivo, 120 h, time 5 day
[15] = tested on: Staphylococcus aureus; experiment: Induction of nucleic acid leakage in Staphylococcus aureus ATCC 25923 at 4 times MIC; assay type: functional
[16] = tested on: Cell membrane; experiment: Induction of membrane disruption in Staphylococcus aureus ATCC 25923 assessed as PI-positive cells at 4 times MIC measured after 2 hrs by propidium iodide staining based flow cytometry relative to control
[17] = tested on: Staphylococcus aureus; experiment: Antimicrobial activity against methicillin-resistant Staphylococcus aureus 75 after 18 hrs by broth microdilution method; assay type: functional
[18] = tested on: Staphylococcus aureus; experiment: Antimicrobial activity against methicillin-resistant Staphylococcus aureus 113 after 18 hrs by broth microdilution method; assay type: functional
[19] = tested on: Staphylococcus aureus; experiment: Antimicrobial activity against Staphylococcus aureus ATCC 29213 after 18 hrs by broth microdilution method; assay type: functional
[20] = tested on: Staphylococcus aureus; experiment: Antibiofilm activity against Staphylococcus aureus ATCC 25923 at 0.5 to 8 uM after 24 hrs by crystal violet staining based assay; assay type: functional, organism-based; settings: dose 0.5-8 µM
[21] = tested on: Staphylococcus epidermidis; experiment: Antimicrobial activity against Staphylococcus epidermidis ATCC 12228 after 18 hrs by broth microdilution method; assay type: functional
[22] = tested on: Staphylococcus aureus; experiment: Induction of reactive oxygen species generation in Staphylococcus aureus ATCC 25923 by […] dye based fluorescence assay; assay type: functional, organism-based
[23] = Toxicity in BALB/c mouse assessed as death at 20 mg/kg, ip administered as single dose measured within 24 hrs; assay type: organism-based; settings: in vivo
[24] = tested on: Bacillus subtilis; experiment: Antimicrobial activity against Bacillus subtilis ATCC 23857 after 18 hrs by broth microdilution method; assay type: functional
[25] = Toxicity in BALB/c mouse assessed as inflammatory cell infiltration in kidney at 80 mg/kg, ip administered as single dose measured after 5 days; assay type: organism-based; settings: in vivo, 120 h, time 5 day
[26] = tested on: Lipopolysaccharide (LPS); experiment: Binding affinity to LPS (unknown origin) assessed as bacterial killing at 2 times MIC preincubated for 1 hr followed by Staphylococcus aureus ATCC 25923 addition and measured after 2 hrs by colony counting method; settings: time 3.0 hrs
[27] = tested on: Staphylococcus aureus; experiment: Antibiofilm activity against ciprofloxacin-resistant Staphylococcus aureus ATCC 25923 at 0.5 to 8 uM after 24 hrs by crystal violet staining based assay; assay type: functional, organism-based; settings: dose 0.5-8 µM
[28] = tested on: Staphylococcus aureus; experiment: Antimicrobial activity against Staphylococcus aureus ATCC 25923 assessed as bacterial killing preincubated for 4 hrs followed by replating on MHB agar and measured after 24 hrs by time kill assay; assay type: functional, organism-based; settings: time 28.0 hrs
[29] = Toxicity in BALB/c mouse assessed as ruffled fur at 20 to 80 mg/kg, ip administered as single dose measured within 30 mins; assay type: organism-based; settings: in vivo, 0.5 h, dose 20-80 mg/kg
[30] = tested on: Staphylococcus aureus; experiment: Antimicrobial activity against Staphylococcus aureus ATCC 25923 after 18 hrs by broth microdilution method; assay type: functional
[31] = Toxicity in BALB/c mouse assessed as swelling of renal tubular epithelial cells at 80 mg/kg, ip administered as single dose measured after 5 days; assay type: organism-based; settings: in vivo, 120 h, time 5 day
[32] = tested on: Staphylococcus aureus; experiment: Antimicrobial activity against Staphylococcus aureus ATCC 25923 assessed as bacterial killing at 2 times MIC preincubated for 2 hrs followed by replating on MHB agar and measured after 24 hrs by time kill assay; assay type: functional, organism-based; settings: time 26.0 hrs
[33] = tested on: Staphylococcus aureus; experiment: Ratio of MIC for antimicrobial activity against Staphylococcus aureus ATCC 25923 in presence of 2.5% serum to MIC for antimicrobial activity against Staphylococcus aureus ATCC 25923 in absence of serum; assay type: functional
[34] = tested on: HEK-293T; experiment: Cytotoxicity against HEK293T cells assessed as reduction in cell viability at 1 uM measured after 24 hrs by MTT assay; assay type: cell-based; settings: human
[35] = Therapeutic index, ratio of MHC for mouse RBC to geometric mean of peptide MIC for Staphylococcus epidermidis ATCC 12228; assay type: toxicity; settings: pooled result: one value given for 6 cell lines, strains, targets or settings, read-out: TI
[36] = tested on: Staphylococcus aureus; experiment: Ratio of MIC for antimicrobial activity against Staphylococcus aureus ATCC 25923 in presence of 5% serum to MIC for antimicrobial activity against Staphylococcus aureus ATCC 25923 in absence of serum; assay type: functional
[37] = tested on: Staphylococcus aureus; experiment: Antimicrobial activity against Staphylococcus aureus ATCC 25923 assessed as bacterial killing at 0.5 times MIC preincubated for 4 hrs followed by replating on MHB agar and measured after 24 hrs by time kill assay; assay type: functional, organism-based; settings: time 28.0 hrs
[38] = tested on: Staphylococcus aureus; experiment: Ratio of MIC for antimicrobial activity against Staphylococcus aureus ATCC 25923 in presence of 10% serum to MIC for antimicrobial activity against Staphylococcus aureus ATCC 25923 in absence of serum; assay type: functional
[39] = tested on: Erythrocyte; experiment: Hemolytic activity against mouse erythrocytes measured after 1 hr; assay type: ADME, cell-based
[40] = tested on: Staphylococcus aureus; experiment: Antimicrobial activity against Staphylococcus aureus ATCC 25923 assessed as bacterial killing at MIC preincubated for 4 hrs followed by replating on MHB agar and measured after 24 hrs by time kill assay; assay type: functional, organism-based; settings: time 28.0 hrs
[41] = tested on: Staphylococcus aureus; experiment: Antimicrobial activity against Staphylococcus aureus ATCC 25923 assessed as bacterial killing at 4 times MIC preincubated for 30 mins followed by replating on MHB agar and measured after 24 hrs by time kill assay; assay type: functional, organism-based; settings: time 24.5 hrs

CC[C@H](C)CCCCC(=O)N[C@@H](CCN)C(=O)N[C@H](C(=O)N[C@@H](CCN)C(=O)N[C@H]1CCNC(=O)[C@H]([C@@H](C)O)NC(=O)[C@H](CCN)NC(=O)[C@H](CCN)NC(=O)[C@H](CC(C)C)NC(=O)[C@@H](Cc2ccccc2)NC(=O)[C@H](CCN)NC1=O)[C@@H](C)O (X1-[Dab]T[Dab][Dab][Dab][dF]L[Dab][Dab]T; lactam 4-C)
Activity [1]: Active | Activity [2]: Toxic | Activity [3]: Toxic | Activity [4]: Toxic | Activity [5]: Toxic | Activity [6]: Toxic | Activity [7]: Toxic | Activity [8]: inactive | Activity [9]: Active | Activity [10]: Active | Activity [11]: Toxic | Activity [12]: 68% | Activity [13]: inactive | Activity [14]: Toxic | Activity [15]: inactive | Activity [16]: 84.8% | MIC [17]: 8 µM (≈ 9.63 µg/mL) | MIC [18]: 8 µM (≈ 9.63 µg/mL) | MIC [19]: 16 µM (≈ 19.3 µg/mL) | Activity [20]: Active | MIC [21]: 8 µM (≈ 9.63 µg/mL) | Activity [22]: Active | Activity [23]: Toxic | MIC [24]: 8 µM (≈ 9.63 µg/mL) | Activity [25]: Toxic | Activity [26]: Active | Activity [27]: Active | Activity [28]: inactive | Activity [29]: Toxic | MIC [30]: 16 µM (≈ 19.3 µg/mL) | Activity [31]: Toxic

CC[C@H](C)[C@H](NC(=O)CN)C(=O)NCC(=O)N[C@@H](C)C(=O)N[C@H](C(=O)N[C@@H](CC(C)C)C(=O)N[C@@H](CCCCN)C(=O)N[C@H](C(=O)N[C@@H](CC(C)C)C(=O)N[C@H](C(=O)N[C@H](C(=O)NCC(=O)N[C@@H](CC(C)C)C(=O)N1CCC[C@H]1C(=O)N[C@@H](C)C(=O)N[C@@H](CC(C)C)C(=O)N[C@H](C(=O)N[C@@H](CO)C(=O)N[C@@H](Cc1c[nH]c2ccccc12)C(=O)N[C@H](C(=O)N[C@@H](CCCCN)C(=O)N[C@@H](CCCNC(=N)N)C(=O)N[C@@H](CCCCN)C(=O)N[C@@H](CCCNC(=N)N)C(=O)N[C@@H](CCC(N)=O)C(=O)N[C@@H](CCC(N)=O)C(N)=O)[C@@H](C)CC)[C@@H](C)CC)[C@@H](C)O)[C@@H](C)O)C(C)C)C(C)C [MELITTIN]
Activity [1]: Active | Activity [32]: Active | Activity [8]: Active | Ratio [33]: 2 | Activity [9]: Active | Activity [34]: Toxic | Activity [10]: Active | selectivity ratio [35]: 0.8 | Activity [12]: 91.9% | Activity [13]: Active | Activity [15]: inactive | Activity [16]: 92.5% | Activity [20]: Active | Ratio [36]: 2 | Activity [22]: Active | Activity [26]: Active | Activity [37]: inactive | Activity [27]: Active | Ratio [38]: 2 | MHC10 [39]: 2 µM | Activity [40]: Active | Activity [41]: Active
